These results are taken from patent US20110288106A1, “ADENINE RECEPTOR LIGANDS” (Rheinische Friedrich-Wilhelms-Universitaet Bonn …, priority 2008, published 2011).

In assay [1] the target is T1, rAde1R (Rattus norvegicus, UniProt Q7TN49).
T1 construct: expressed in transfected cells; host or cells: 1321N1 human astrocytoma cells
T1 sequence (Q7TN49 1-304): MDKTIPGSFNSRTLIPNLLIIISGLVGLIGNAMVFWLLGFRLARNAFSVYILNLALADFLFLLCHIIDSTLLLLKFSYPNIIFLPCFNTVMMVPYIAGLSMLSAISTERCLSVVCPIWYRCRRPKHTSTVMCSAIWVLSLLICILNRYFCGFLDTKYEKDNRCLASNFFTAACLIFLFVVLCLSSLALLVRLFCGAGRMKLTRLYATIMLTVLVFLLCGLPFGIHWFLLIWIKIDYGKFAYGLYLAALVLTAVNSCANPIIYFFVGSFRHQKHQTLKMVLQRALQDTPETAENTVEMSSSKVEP
The assay can be described thus: cAMP-dependent luciferase assay, inhibition of isoproterenol-stimulated cAMP accumulation. It counts as cell-based. Here is the method:
(§1) 1321N1 cells stably expressing the rAde1R were cultured in DMEM supplemented with 10% (v/v) FCS, L-glutamine (2 mM), penicillin (100 U/ml), streptomycin (100 U/ml) and 400 μg/ml G 418 at 37° C. under a humidified atmosphere containing 5% CO2. Cells were cultured in 75 cm^2 flasks (3.2×10^5) for 24 h without antibiotics so that they were 90-95% confluent before transfection. The cAMP responsive reporter plasmid (pCER-luc) or serum response element (pSRE-luc) was transfected into 1321N1 cells expressing rat adenine receptors using Lipofectamine 2000 as a transfection reagent.
Reporter cells were seeded at a density of […] cells/well in a 24-well plate 18-20 hr prior to assay. After removal of culture medium, cells were washed twice with Hanks' balanced salt solution (containing 20 mM HEPES, pH 7.3). Adenine and selected adenine derivatives were diluted in Hanks' balanced salt solution containing 3 nM isoproterenol and then incubated with reporter cells in the same buffer for 3 h at 37° C. The reaction was stopped by removal of the reaction buffer and the luciferase expression was determined using Bright-Glo™ Luciferase assay system (Promega) as described in the kit protocol. Plates were shaken for 2 min to ensure complete lysis of cells. Then the total volume from each well was transferred to a white 96-well plate (Greiner bio-one). Luminescence was determined using a NOVOstar microplate reader (BMG labtech); each well was counted for 2 s at 20° C.
For orientation: Changes in cAMP serve as a functional read-out for many G protein-coupled receptors.

For assay [2], the target named is T1, rAde1R. In words: Erk phosphorylation assay (SRE-dependent luciferase), 1321N1 cells expressing rAde1R. It counts as cell-based. The note with it: 1321N1 astrocytoma cells stably expressing rAde1R, 6 h. The method, then:
as §1
Erk phosphorylation was investigated by a gene reporter assay measuring SRE-dependent luciferase activity in astrocytoma cells stably transfected with the rat adenine receptor. The cells were seeded in a 24-well plate prior to the assay. The culture medium was removed and cells were washed twice with Hanks' balanced salt solution without HEPES, pH 7.3. Adenine was diluted in the same buffer and then added to the cells, which were incubated for 6 h at 37° C. The reaction was stopped by removal of the reaction buffer and the luciferase expression was determined as described before.

The subject of assay [3] is non-transfected 1321N1 astrocytoma cells. The assay can be described thus: Erk phosphorylation assay (SRE-dependent luciferase), non-transfected cells. It counts as cell-based, human. Particulars: 6 h.
Assay [4] addresses T1, rAde1R. The note with it: literature, Gorzalka et al. 2005; cited from earlier work.

On to `Nc1ncnc2nc[nH]c12` [adenine], for which the concentration giving a half-maximal response (EC50) on rAde1R [1] (in the absence of compound 9) worked out at 0.00224 ± 0.00183 µM; on rAde1R [1] (in the presence of compound 9 (10 μM)), 0.115 ± 0.042 µM. Also, the “SRE-dependent luciferase expression / erk phosphorylation” value is “dose-dependent stimulation of erk phosphorylation” on rAde1R [2] and “no effect” in assay [3]. Besides, the Ki on rAde1R [4] was 0.0299 µM.

The EC50 is the concentration giving half of the maximal effect. The term Ki denotes the dissociation constant of the complex between target and ligand, obtained from inhibition or displacement.
